Test results taken from US8629132B2, “Kinase inhibitors” (Genosco, priority 2009, dated 2014).
pIC50: −log10 of the molar value.

Columns and labels:
[1] = molecular target: T1, SYK (Homo sapiens, UniProt P43405); experiment: Kinase inhibition assay: SYK; type: biochemical; conditions: at 1 μM concentration
T1 construct: Purified full-length human SYK, ZAP70, PIM1, PYK2; purchased Carna Biosciences
Protocol: (§1) Compounds of the present invention were tested for their capacity to inhibit a kinase panel which includes, but are not limited to, spleen tyrosine kinase (SYK), zeta-chain-associated protein kinase 70 (ZAP70), PTK2B protein tyrosine kinase 2 (PYK2), focal adhesion kinase (FAK), provirus integration of maloney kinase 1 (PIM1), rearranged during transfection kinase (RET), Fms-like tyrosine kinase 3 (FLT3), Janus kinase 2 (JAK2), and leucine-rich repeat kinase 2 (LRRK2).
(§2) Inhibition of SYK, ZAP70, PYK2, FAK, PIM1, RET, FLT3, JAK2 and LRRK2 Kinase Activity
(§3) Compounds of the invention were initially diluted to 10 mM in 100% DMSO (CALBIOCHEM™) for storage and made into kinase buffer solution to create a compound concentration ranging from 1 uM and 10 uM. Serial dilutions of compounds of the invention were dispensed into a 96-well plate (GREINER BIOSCIENCES™) at 6 μL each. Purified full-length human SYK, ZAP70, PIM1, PYK2 and truncated human FAK, RET, FLT3, JAK2, and LRRK2 (CARNA BIOSCIENCES™) were diluted in kinase buffer and added to the compound solutions and pre-incubated for 30 minutes at room temperature (1 hour for PYK2). […] The reaction mixture was incubated for 1 hour (2 hours for PYK2). Following the incubation, the stop solution made with EDTA, water, and Lance detection buffer ([…]™) was added (12μL each) to stop phosphorylation. […] The IC50 value of test compound was calculated at Gradpad Prism 5 unless specified otherwise.

[2] = molecular target: T2, ZAP70 (Homo sapiens, UniProt P43403); experiment: Kinase inhibition assay: ZAP70; type: biochemical; conditions: at 1 μM concentration
T2 construct: Purified full-length human SYK, ZAP70, PIM1, PYK2; purchased Carna Biosciences
T2 sequence (P43403 1-619): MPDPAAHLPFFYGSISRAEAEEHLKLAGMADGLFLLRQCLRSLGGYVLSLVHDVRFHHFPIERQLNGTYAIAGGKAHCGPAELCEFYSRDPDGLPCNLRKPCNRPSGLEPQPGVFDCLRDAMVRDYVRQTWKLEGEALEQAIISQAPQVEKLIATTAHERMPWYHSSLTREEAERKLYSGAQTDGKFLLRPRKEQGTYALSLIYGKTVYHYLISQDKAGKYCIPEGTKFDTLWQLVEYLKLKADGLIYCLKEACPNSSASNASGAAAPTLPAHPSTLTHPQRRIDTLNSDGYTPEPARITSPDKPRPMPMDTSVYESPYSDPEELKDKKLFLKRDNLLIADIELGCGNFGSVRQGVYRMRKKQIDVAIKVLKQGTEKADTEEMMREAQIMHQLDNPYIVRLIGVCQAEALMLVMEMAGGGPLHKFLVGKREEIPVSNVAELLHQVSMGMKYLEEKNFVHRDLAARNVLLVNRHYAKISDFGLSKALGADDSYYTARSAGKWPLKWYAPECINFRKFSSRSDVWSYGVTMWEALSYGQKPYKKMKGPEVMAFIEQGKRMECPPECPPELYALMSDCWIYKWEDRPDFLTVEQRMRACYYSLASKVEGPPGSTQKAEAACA
Protocol: as §1, §2, §3

[3] = molecular target: T3, PYK2 (Homo sapiens, UniProt Q14289); experiment: Kinase inhibition assay: PYK2; type: biochemical; conditions: at 1 μM concentration
T3 construct: Purified full-length human SYK, ZAP70, PIM1, PYK2; purchased Carna Biosciences
Protocol: as §1, §2, §3

[4] = molecular target: T4, FAK (Homo sapiens, UniProt Q05397); experiment: Kinase inhibition assay: FAK; type: biochemical; conditions: at 1 μM concentration
T4 construct: truncated human FAK, RET, FLT3, JAK2, and LRRK2; purchased Carna Biosciences
Protocol: as §1, §2, §3

[5] = molecular target: T5, PIM1 (Homo sapiens, UniProt P11309); experiment: Kinase inhibition assay: PIM1; type: biochemical; conditions: at 1 μM concentration
T5 construct: Purified full-length human SYK, ZAP70, PIM1, PYK2; purchased Carna Biosciences
Protocol: as §1, §2
Compounds of the invention were initially diluted to 10 mM in 100% DMSO (CALBIOCHEM™) for storage and made into kinase buffer solution to create a compound concentration ranging from 1 uM and 10 uM. Serial dilutions of compounds of the invention were dispensed into a 96-well plate (GREINER BIOSCIENCES™) at 6 μL each. Purified full-length human SYK, ZAP70, PIM1, PYK2 and truncated human FAK, RET, FLT3, JAK2, and LRRK2 (CARNA BIOSCIENCES™) were diluted in kinase buffer and added to the compound solutions and pre-incubated for 30 minutes at room temperature (1 hour for PYK2). […] The reaction mixture was incubated for 1 hour (2 hours for PYK2). Following the incubation, the stop solution made with EDTA, water, and Lance detection buffer ([…]™) was added (12μL each) to stop phosphorylation. […] Substrate phosphorylation was a function of the 665 nm emission measured following the addition of the detection solution and 50 minutes of incubation. The IC50 value of test compound was calculated at Gradpad Prism 5 unless specified otherwise.

[6] = molecular target: T6, RET (Homo sapiens, UniProt P07949); experiment: Kinase inhibition assay: RET; type: biochemical
T6 construct: truncated human FAK, RET, FLT3, JAK2, and LRRK2; purchased Carna Biosciences
T6 sequence (P07949 658-1114 limits assumed): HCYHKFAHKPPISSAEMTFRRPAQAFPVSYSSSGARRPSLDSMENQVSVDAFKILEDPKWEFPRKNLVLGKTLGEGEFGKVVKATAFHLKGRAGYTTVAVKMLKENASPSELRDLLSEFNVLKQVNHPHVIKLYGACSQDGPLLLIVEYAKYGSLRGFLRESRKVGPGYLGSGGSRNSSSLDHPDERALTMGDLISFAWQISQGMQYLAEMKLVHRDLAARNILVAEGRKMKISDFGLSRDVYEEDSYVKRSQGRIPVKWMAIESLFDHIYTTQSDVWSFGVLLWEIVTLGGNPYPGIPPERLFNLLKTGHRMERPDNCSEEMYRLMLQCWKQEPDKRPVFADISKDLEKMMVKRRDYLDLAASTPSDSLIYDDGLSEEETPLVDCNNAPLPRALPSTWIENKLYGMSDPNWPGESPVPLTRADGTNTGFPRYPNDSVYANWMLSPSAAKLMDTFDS
Protocol: as §1, §2, §3

[7] = molecular target: T7, FLT3 (Homo sapiens, UniProt P36888); experiment: Kinase inhibition assay: FLT3; type: biochemical
T7 construct: truncated human FAK, RET, FLT3, JAK2, and LRRK2; purchased Carna Biosciences
T7 sequence (P36888 564-993 limits assumed): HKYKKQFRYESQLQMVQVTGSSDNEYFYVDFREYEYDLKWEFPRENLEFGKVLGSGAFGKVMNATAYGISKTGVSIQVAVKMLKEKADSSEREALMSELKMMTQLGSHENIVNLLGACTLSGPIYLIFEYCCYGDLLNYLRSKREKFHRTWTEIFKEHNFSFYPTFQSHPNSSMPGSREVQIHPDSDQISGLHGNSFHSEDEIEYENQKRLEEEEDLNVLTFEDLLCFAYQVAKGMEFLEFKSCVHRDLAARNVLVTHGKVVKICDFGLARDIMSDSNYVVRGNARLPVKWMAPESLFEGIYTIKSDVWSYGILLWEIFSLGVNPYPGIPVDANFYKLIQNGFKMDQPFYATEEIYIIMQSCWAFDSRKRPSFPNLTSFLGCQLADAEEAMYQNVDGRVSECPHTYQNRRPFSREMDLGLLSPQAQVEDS
Protocol: as §1, §2, §3

[8] = molecular target: T8, LRRK2 (Homo sapiens, UniProt Q5S007); experiment: Kinase inhibition assay: LRRK2; type: biochemical
T8 construct: truncated human FAK, RET, FLT3, JAK2, and LRRK2; purchased Carna Biosciences
Protocol: as §1, §2, §3

[9] = test system: MTC-TT; experiment: Cell viability assay: RET inhibition; type: cell-based, human; conditions: for IC50: Homo sapiens, 48 h, two days after drug treatment; for inhibition level compared with Vandetinib and Sunitinib: RET induced cancer cell line (MTC-TT)
Protocol: To address RET dependent cell viability, the medullary thyroid carcinoma cell line, MTC-TT representing MEN2A was utilized to test compounds of the present invention. MTC-TT were cultured at RPMI containing 15 bovine calf serum (Hyclon™ of Thermo™) and supplemented with 2 mM L-Glutamine The cells were grown at a density of 5×10^4 cells/100 μL/well in duplicate in 96-well plates for one day and treated with different concentrations of test compound. Cell viability for MTC-TT two days after drug treatment was measured by Cell Titer 96 Aqueous One Solution Reagent (Promega™) according to the manufacture instructions.

[10] = molecular target: JAK2 (Homo sapiens, UniProt O60674); experiment: Kinase inhibition assay: JAK2; type: biochemical; parameters: truncated human FAK, RET, FLT3, JAK2, and LRRK2; purchased Carna Biosciences
Protocol: as §1, §2, §3

T5 sequence (P11309 whole entry): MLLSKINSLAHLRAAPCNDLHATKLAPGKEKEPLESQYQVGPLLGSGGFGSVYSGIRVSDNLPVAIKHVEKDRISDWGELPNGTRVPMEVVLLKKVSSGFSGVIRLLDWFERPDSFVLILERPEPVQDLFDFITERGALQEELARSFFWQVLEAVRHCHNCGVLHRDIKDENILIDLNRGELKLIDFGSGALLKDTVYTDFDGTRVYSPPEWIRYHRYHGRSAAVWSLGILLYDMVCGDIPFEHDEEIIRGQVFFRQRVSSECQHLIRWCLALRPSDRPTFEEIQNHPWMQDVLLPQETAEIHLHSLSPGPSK
T4 sequence (Q05397 376-1052 limits assumed): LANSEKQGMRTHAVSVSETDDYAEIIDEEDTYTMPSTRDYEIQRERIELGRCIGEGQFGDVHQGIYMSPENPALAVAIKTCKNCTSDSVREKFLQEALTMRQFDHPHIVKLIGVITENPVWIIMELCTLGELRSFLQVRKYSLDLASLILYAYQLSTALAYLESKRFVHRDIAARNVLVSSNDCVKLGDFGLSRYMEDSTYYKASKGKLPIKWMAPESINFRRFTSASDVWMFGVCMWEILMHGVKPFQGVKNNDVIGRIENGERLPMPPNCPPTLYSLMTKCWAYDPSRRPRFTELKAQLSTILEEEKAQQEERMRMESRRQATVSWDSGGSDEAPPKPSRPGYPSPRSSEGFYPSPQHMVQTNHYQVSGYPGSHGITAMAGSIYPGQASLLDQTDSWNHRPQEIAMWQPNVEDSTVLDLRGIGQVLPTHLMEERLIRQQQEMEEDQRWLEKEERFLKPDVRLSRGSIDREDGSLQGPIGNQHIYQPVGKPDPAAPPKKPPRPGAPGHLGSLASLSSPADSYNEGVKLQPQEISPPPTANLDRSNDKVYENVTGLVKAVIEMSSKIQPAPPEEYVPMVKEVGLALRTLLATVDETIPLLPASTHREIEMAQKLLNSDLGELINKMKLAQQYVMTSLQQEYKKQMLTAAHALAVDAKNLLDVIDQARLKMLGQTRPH
T3 sequence (Q14289 whole entry): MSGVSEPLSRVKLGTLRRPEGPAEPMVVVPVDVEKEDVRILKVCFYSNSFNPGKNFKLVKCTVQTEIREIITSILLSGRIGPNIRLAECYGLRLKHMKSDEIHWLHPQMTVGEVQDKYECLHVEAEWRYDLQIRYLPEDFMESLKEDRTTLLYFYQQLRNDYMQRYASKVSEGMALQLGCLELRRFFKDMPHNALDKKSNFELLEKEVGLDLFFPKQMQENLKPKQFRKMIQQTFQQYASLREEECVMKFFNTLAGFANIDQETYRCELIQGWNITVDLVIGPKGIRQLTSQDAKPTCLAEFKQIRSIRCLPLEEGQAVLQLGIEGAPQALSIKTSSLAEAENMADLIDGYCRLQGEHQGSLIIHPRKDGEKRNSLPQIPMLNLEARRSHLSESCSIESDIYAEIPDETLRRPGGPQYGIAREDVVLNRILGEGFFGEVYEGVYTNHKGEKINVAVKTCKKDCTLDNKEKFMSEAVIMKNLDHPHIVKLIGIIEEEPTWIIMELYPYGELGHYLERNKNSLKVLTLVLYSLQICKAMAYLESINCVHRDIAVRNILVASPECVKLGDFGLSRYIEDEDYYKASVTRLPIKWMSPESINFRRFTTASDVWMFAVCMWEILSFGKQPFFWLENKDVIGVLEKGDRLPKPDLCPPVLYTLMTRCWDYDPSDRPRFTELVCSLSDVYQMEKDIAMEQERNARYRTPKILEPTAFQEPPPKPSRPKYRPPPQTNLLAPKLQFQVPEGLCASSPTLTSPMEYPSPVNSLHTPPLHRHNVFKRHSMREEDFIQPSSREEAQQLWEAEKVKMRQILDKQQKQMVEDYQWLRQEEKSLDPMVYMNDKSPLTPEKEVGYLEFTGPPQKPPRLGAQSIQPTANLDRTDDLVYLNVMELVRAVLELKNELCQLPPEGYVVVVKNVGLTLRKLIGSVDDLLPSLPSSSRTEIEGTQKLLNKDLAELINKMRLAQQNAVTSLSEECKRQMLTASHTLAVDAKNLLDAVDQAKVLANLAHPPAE
JAK2, sequence (O60674 826-1132 limits assumed): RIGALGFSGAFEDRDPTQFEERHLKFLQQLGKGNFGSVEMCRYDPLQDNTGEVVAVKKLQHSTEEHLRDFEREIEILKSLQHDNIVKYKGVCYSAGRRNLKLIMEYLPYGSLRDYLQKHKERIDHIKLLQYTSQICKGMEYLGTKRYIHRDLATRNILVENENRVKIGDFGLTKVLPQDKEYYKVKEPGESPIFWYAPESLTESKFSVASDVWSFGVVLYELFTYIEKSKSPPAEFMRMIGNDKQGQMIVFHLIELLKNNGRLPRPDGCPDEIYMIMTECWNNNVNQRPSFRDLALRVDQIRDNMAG
T8 sequence (Q5S007 970-2527 limits assumed): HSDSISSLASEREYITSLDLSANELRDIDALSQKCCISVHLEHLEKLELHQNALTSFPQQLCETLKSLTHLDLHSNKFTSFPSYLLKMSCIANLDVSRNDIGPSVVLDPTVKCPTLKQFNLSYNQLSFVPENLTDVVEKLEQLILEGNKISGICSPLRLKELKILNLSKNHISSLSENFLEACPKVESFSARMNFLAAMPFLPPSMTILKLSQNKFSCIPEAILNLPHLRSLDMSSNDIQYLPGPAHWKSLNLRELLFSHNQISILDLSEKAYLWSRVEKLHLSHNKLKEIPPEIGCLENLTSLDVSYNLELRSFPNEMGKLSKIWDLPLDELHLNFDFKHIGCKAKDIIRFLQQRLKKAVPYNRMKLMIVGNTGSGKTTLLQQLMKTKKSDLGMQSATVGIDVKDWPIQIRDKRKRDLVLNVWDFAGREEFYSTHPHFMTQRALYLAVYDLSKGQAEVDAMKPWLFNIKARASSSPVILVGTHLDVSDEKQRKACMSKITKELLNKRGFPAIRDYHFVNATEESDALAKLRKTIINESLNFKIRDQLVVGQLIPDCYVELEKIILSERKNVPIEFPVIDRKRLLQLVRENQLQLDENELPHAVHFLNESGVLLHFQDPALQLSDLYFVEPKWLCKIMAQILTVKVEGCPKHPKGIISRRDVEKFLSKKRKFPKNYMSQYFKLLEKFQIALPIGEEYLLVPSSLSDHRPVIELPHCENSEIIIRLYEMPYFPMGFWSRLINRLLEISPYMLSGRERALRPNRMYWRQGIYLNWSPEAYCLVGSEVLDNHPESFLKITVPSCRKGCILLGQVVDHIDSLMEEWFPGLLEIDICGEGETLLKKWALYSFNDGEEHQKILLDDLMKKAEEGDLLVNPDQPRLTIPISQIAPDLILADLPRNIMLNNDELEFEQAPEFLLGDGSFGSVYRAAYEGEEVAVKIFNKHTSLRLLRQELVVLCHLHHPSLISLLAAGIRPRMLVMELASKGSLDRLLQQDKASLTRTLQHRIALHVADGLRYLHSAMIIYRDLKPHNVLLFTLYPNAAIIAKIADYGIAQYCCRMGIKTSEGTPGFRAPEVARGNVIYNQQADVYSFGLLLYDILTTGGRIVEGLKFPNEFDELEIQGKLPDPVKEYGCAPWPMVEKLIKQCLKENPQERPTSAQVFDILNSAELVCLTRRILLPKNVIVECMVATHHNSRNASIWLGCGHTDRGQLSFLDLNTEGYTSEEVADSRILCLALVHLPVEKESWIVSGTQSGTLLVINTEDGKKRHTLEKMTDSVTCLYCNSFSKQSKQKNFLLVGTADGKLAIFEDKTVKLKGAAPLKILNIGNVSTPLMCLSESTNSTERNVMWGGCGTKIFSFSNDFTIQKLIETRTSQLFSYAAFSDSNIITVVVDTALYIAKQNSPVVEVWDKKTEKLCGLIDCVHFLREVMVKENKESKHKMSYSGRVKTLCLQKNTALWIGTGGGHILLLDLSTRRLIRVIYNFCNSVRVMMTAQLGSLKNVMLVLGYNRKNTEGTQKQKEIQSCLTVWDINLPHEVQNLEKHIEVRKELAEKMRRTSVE

Compound `Cc1cc(C)cc(Nc2ncc(F)c(-n3cc(C)c(CO)c3)n2)c1` [Compound 14, (1-(2-(3,5-dimethyl-phenylamino)-5-fluoro-pyrimidin-4-yl)-4-methyl-1H-pyrrol-3-yl)methanol] has an inhibition at 1 µM [1] of 82.7%, an inhibition at 1 µM [2] of 41.3% and an inhibition at 1 µM [3] of 30.6%. It also gave an inhibition at 1 µM [4] of 36.9% and an inhibition at 1 µM [5] of 21.9%.

Work on `Cc1cc(C)cc(Nc2ncc(F)c(-n3cc(C(=O)N4CC[C@@H](O)C4)c(C)n3)n2)c1` [Compound 38, (R)-(1-(2-(3,5-dimethylphenylamino)-5-fluoropyrimidin-4-yl)-3-methyl-1H-pyrazol-4-yl)(3-hydroxypyrrolidin-1-yl)methanone] yielded an inhibition at 1 µM [1] of 41.8%, an inhibition at 1 µM [2] of 19.3% and an inhibition at 1 µM [3] of 18%. For the same compound, the inhibition at 1 µM [4] was 17.7% and the inhibition at 1 µM [5] was 3.7%.

`COc1cc(Nc2ncc(C)c(-n3cc(C)c(CN4CCN(CCO)CC4)c3)n2)cc(OC)c1OC` [Compound 40, 2-(4-((4-methyl-1-(5-methyl-2-(3,4,5-trimethoxyphenylamino)pyrimidin-4-yl)-1H-pyrrol-3-yl)methyl)piperazin-1-yl)ethanol] was tested, and the pIC50 [6] was 7.99, the pIC50 [7] was 9.77 and the pIC50 [8] was 6.56. For the same compound, the IC50 [9] was 78.4 nM, the “inhibition level compared with Vandetinib and Sunitinib” value [9] was “greater than those exhibited by Vandetinib and Sunitinib” and the pIC50 [10] was 8.43.

In the case of `Cc1cn(-c2nc(Nc3cc(C)c(OCCO)c(C)c3)ncc2C)cc1CN(C)C` [Compound 121, 2-(4-(4-(3-((dimethylamino)methyl)-4-methyl-1H-pyrrol-1-yl)-5-methylpyrimidin-2-ylamino)-2,6-dimethylphenoxy)ethanol], the pIC50 [6] was 8.64, the pIC50 [7] was 8.77 and the IC50 [9] was 34.6 nM. For the same compound, the “inhibition level compared with Vandetinib and Sunitinib” value [9] was “greater than those exhibited by Vandetinib and Sunitinib” and the pIC50 [10] was 8.60.
